# Assay results from patent publication US10898535B2, “Composition for inhibiting and preventing myopathy, containing bean leaf extract as active ingredient” (AMOREPACIFIC CORPORATION, priority 2015, dated 2021).
# Tests used:
# C2C12 (mouse myoblast) = assay: Ability to recover cell activity of myocyte in dexamethasone-induced muscle loss model (CCK8, absorbance 450 nm); format: cell-based; settings: differentiated C2C12, dexamethasone 1 μM, dexibuprofen 100 μM, 24 hours, control group = dexamethasone only
# Method: In the present Experimental Example 1, the experiments were conducted to evaluate the recovery efficacy of the bean leaf extract on the decrease in cell activity of myocyte in a model of muscle loss induced by Dexamethasone. Dexamethasone is a kind of glucocorticoid, and increases expression of the Atrogin1 and Murf1 in vitro and in vivo to accelerate proteolytic degradation, thereby resulting in decrease in skeletal muscle, induction of myocyte death, and reduction of cell activity. Accordingly, an experimental model of dexamethasone to myocyte is a useful model for evaluating the function of sarcopenia and is widely used. The C2C12 (mouse myoblast) used in Experimental Example 1 was purchased from American Type Culture Collection (Manassas, Va., USA) and the cells were cultured in DMEM containing 10% FBS, 100 units/mL Penicillin, and […] streptomycin. Specific experimental methods are as follows. […] After 24 hours of treatment with the material, the medium was replaced with medium containing 10% solution of CCK8 […], and allowed to react for 10 minutes, and the cell activity was measured by measuring the absorbance at 450 nm. To increase the reliability, each sample was repeatedly measured three times to derive the average value.
# Murf1 gene (mRNA) = assay: Inhibition of expression of Murf1 gene (mRNA) in dexamethasone-induced muscle loss model (PCR); format: cell-based, mouse; settings: differentiated C2C12, dexamethasone 1 μM, dexibuprofen 100 μM, 6 hours, control group = dexamethasone only
# Method: (§1) In the present Experimental Example 2, experiments were conducted to evaluate the inhibitory efficacy of the bean leaf extract against the overexpression of Atrogin1 and Murf1 mRNA in the muscle loss induced model by dexamethasone. The experimental group, the control group and the comparison group of Experimental Example 2 were prepared in the same manner as Experimental Example 1. Provided that, when 6 hours had elapsed since the treatment with each final material, RNA was extracted with trizol reagent (TRIzol agent, Invitrogen) after washing twice with cold saline, […] Expression patterns of each gene were measured using primers and probes (Applied biosystems) previously designed for genes of the synthesized cDNA and Atrogin1, Murf1, and GAPD. At this time, polymerase chain reaction (PCR) and analysis were performed using a Rotor-Gene 3000 system (Corbett Research, Sydney, Australia). To increase the reliability, each sample was repeatedly measured three times to derive the average value.
# Atrogin1 gene (mRNA) = assay: Inhibition of expression of Atrogin1 gene (mRNA) in dexamethasone-induced muscle loss model (PCR); format: cell-based, mouse; settings: differentiated C2C12, dexamethasone 1 μM, dexibuprofen 100 μM, 6 hours, control group = dexamethasone only
# Method: as §1
structure (smiles),measurement,setting,value
"CC(C)Cc1ccc([C@H](C)C(=O)O)cc1 [Dexibuprofen, dexibuprofen]",Change in cell activity relative to control group (%),C2C12 (mouse myoblast),−4.1%
same,Change in cell activity relative to control group (%),C2C12 (mouse myoblast); listed as dexibuprofen,no recovery of myocyte activity is observed
same,Change in Murf1 gene expression relative to control group (%),Murf1 gene (mRNA),−3.3%
same,Change in Murf1 gene expression relative to control group (%),Murf1 gene (mRNA); listed as dexibuprofen,insignificant
same,Change in Atrogin1 gene expression relative to control group (%),Atrogin1 gene (mRNA),−2.6%
same,Change in Atrogin1 gene expression relative to control group (%),Atrogin1 gene (mRNA); listed as dexibuprofen,insignificant
